What was measured:
[1] = system: Herpes Simplex virus of the type I (HSV-I /Leningrad/248/88); assay: Antiviral effect on Herpes Simplex virus (cytopathogenic action on Vero cells); assay type: cell-based; settings: for Quantity of the unchanged cells: number of cells in 100 visual fields
[2] = system: primary culture of human lymphocytes; assay: Interferon-inducing activity in primary culture of human lymphocytes (IFN-α immunoenzyme test); assay type: cell-based
Description: Interferon synthesis induction caused by the claimed compounds was conducted on a primary culture of human lymphocytes (it is these cells in a human organism that are the main producers of interferons). To obtain lymphocyte culture, fresh blood (within 12 hours after sampling) from healthy donors (not of group II) was used. To separate lymphocytes, heparinized blood obtained from healthy donor was centrifuged in a density gradient ficoll-verografin of […] in order to extract a fraction of immunocompetent cells. This fraction was selected and diluted with the nutrient medium RPMI-1640, containing 5% of fetal calf serum, 0.3 mg/ml of L-glutamin, 100 un/ml of penicillin, and 50 µg/ml of streptomycin. The concentration of lymphocytes was considered after dying them with methylene blue and calculation of cell number in a chamber of a hemocytometer. Initial solutions of the claimed compounds were diluted with the nutrient medium RPMI-1640 so that the final concentrations of the compounds, which were obtained after introduction of lymphocyte suspension, constituted the raw: 100 µg/ml, 10 µg/ml, 1 µg/ml. The final concentration of lymphocytes in the induction mixture was 3x10^6 cell/ml.
Control and test samples were incubated for 24 hours at the temperature of 37°C. After incubation, the samples were centrifuged at 2,000 G to deposit cell elements, and IFN-containing supernatant was separate out of the samples; then the supernatant was analyzed for the quantitative content of IFN. Cell deposition was resuspended in the preceding volume of nutrient medium, colored with vital dye trypan blue, and cell number was counted in a chamber of a hemocytometer (as described above) to determine cytotoxic action of the compounds.
Quantitative determination of the content of IFN in control and test samples was conducted using the immunoenzyme test system Pro Con IF2 Plus, that is intended for determination of IFN-α, which is produced by TOO "Protein contour". The solid-phase immunoenzyme method, utilizing horse radish peroxidase as an indicator enzyme, was used to determine the quantity of interferon in the samples. Activity of the bonded peroxidase was measured using an automatic photometer for microplates with a microprocessor at the wavelength of 450 nm.
Based on the obtained results, a calibrating curve was formed, which allows to obtain data expressed in international units (IU) of activity, using the microprocessor of the automatic photometer. The results of the analysis are expressed in IU of activity of IFN per ml in the given induction system, which contains 3x10^6 lymphocyte/ml. Each test and control point was investigated in four parallels.
Controls of immunoenzyme reaction: • 1. Control of DMSO with a nutrient medium. • 2. Control of system components (according to an instruction).
The obtained data were undergone a statistical analysis using t-criterion, and calculation of the confident interval of probability at p=0.05 was carried out. Coincidence between the results obtained in the parallel tests was analyzed.

C.trachomatis D323 = assay: Antichlamydial activity in infected cell culture (McCoy and L929); assay type: cell-based, Chlamydia trachomatis; settings: 100 mg/l, 48 hours; for Number of unchanged cells: counted in 100 visual fields
Description: The antichlamydial activity of the claimed compounds was studied in respect to C.trachomatis […], which is a standard strain contained in the collection of the department of microbiology of St. Petersburg State Pavlov Medical University. […] Cell cultures McCoy and L929 obtained from the Institute of Cytology of RAS were used in this work. Cells were grown in flasks made of neutral glass in the medium RPMI-1640 containing 10% of fetal calf serum. The test was performed in flat-bottom flasks made of glass (non-toxic), that were supplied with cover glasses. The cells were introduced into the medium in the final concentration of 1x10^6 cell/ml. […] Simultaneously, tested compounds in a final concentration of 100 mg/l were added to the cells. The sample was centrifuged at 2400 G for 60 minutes at a room temperature and incubated at 37°C for 2 hours. […] The samples were doubled using the medium without cycloheximide so as to exclude its effect on the investigated compounds. The samples were incubated for 48 hours in CO2-incubator. The controls included: • 1. Control of cell culture • 2. Control of action of solvents • 3. Control of action of chlamydia in absence of any compounds • 4. […] Control of the tested compounds as to toxicity in respect to the cell culture. Evaluation of the results was carried out by the way of determination of chlamydial cytoplasmatic inclusions (CPI) that was conducted by the method of immunofluorescence (MicroTrack Chlamydia trachomatis Direct Specimen Test), and by the way of determination of chlamydia antigens that was conducted by means of CylaMonoScreen (Russian-British Joint Venture 66 Regent's Parc Road London NW1 7SX). The effect of the action of compound was determined by analysis of the monolayer state and number of cells with CPI when compared with the control (cell culture infected with C.trachomatis […]); in doing so, the number of unchanged cells, that were counted in 100 visual fields obtained using the eyepiece-micrometer, was taken into consideration.

[3] = compound concentration of 100 µg/ml, after 36 hours
[4] = compound concentration of 100 µg/ml, protection of cells from virus as compared to the control of cell culture

Compound | Quantity of the unchanged cells [1, 3] | percentage of protection [1, 4] [%] | Content of IFN in induction mixture after 24-hour incubation ([2]; 1 mg/l) | Content of IFN in induction mixture after 24-hour incubation ([2]; 10 mg/l) | Content of IFN in induction mixture after 24-hour incubation ([2]; 100 mg/l) | percentage of cell protection from infection (C.trachomatis D323) [%] | Number of unchanged cells (C.trachomatis D323) | percentage of protection ([1]; Acyclovir 10 µg/ml, as compared to the control of cell culture) [%] | Quantity of the unchanged cells ([1]; Acyclovir 10 µg/ml)
CCCCCOC(=O)Nc1ccc(S(=O)(=O)Nc2c(Cl)cccc2Cl)cc1 [XIX, Carbopentoxysulfanylic acid (2,6-dichlorophenyl)amide] | 8000 | 80 |  |  |  |  |  |  | 
CCCCOC(=O)Nc1ccc(S(=O)(=O)Nc2ccc(Br)cc2)cc1 [III, Carbobutoxysulfanylic acid (4-bromophenyl)amide] | 5000 | 50 | 1,4 ± 0,2 IU/3x10^4 lymph./ml | 2,6 ± 0,3 IU/3x10^4 lymph./ml | 3,5 ± 0,2 IU/3x10^4 lymph./ml |  |  |  | 
CCCCOC(=O)Nc1ccc(S(=O)(=O)Nc2ccccc2Cl)cc1 [IX, Carbobutoxysulfanylic acid (2-chlorophenyl)amide] | 7000 | 70 | 1,5 ± 0,1 IU/3x10^4 lymph./ml | 2 ± 0,1 IU/3x10^4 lymph./ml | 2,5 ± 0,5 IU/3x10^4 lymph./ml |  |  |  | 
CCCCOC(=O)Nc1ccc(S(=O)(=O)Nc2cccc(Br)c2)cc1 [XII, Carbobutoxysulfanylic acid (3-bromophenyl)amide] | 5000 | 50 | 1,3 ± 0,2 IU/3x10^4 lymph./ml | 2 ± 0,5 IU/3x10^4 lymph./ml | 2,5 ± 0,6 IU/3x10^4 lymph./ml | 45 | 3.600 |  | 
CCCCCCCOC(=O)Nc1ccc(S(=O)(=O)Nc2ccccc2Cl)cc1 [XXVII, Carboheptoxysulfanylic acid (2-chlorophenyl)amide] |  |  | 1,2 ± 0,1 IU/3x10^4 lymph./ml | 1,5 ± 0,3 IU/3x10^4 lymph./ml | 2 ± 0,3 IU/3x10^4 lymph./ml |  |  |  | 
Carbo(2,2,2-trifluorethoxy)-sulfanylic acid (1,2,4-thiadiazole-2-butyl-5-yl)amide [XL] | 7000 | 70 | 1.6 ± 0.1 IU/3x10^4 lymph./ml | 3.6 ± 0.5 IU/3x10^4 lymph./ml | 14 ± 0.2 IU/3x10^4 lymph./ml |  |  |  | 
CCCCOC(=O)Nc1ccc(S(=O)(=O)Nc2ccccc2)cc1 [XIII, Carbobutoxysulfanylic acid phenylamide] | 5000 | 50 | 1,5 ± 0,2 IU/3x10^4 lymph./ml | 1,4 ± 0,1 IU/3x10^4 lymph./ml | 2 ± 0,1 IU/3x10^4 lymph./ml |  |  |  | 
CCCCOC(=O)Nc1ccc(S(=O)(=O)Nc2c(Cl)cccc2Cl)cc1 [X, Carbobutoxysulfanylic acid (2,6-dichlorophenyl)amide] | 7000 | 70 | 7 ± 1 IU/3x10^4 lymph./ml | 26 ± 1 IU/3x10^4 lymph./ml | 100 ± 3 IU/3x10^4 lymph./ml | 50 | 4.000 |  | 
Nc1nc2c(ncn2COCCO)c(=O)[nH]1 [Acyclovir, reference compound] |  |  |  |  |  |  |  | 80 | 8000
CCCCCCOC(=O)Nc1ccc(S(=O)(=O)Nc2ccc(Br)cc2)cc1 [V, Carbohexoxysulfanylic acid (4-bromophenyl)amide] | 5000 | 50 | 1,1 ± 0,1 IU/3x10^4 lymph./ml | 1,4 ± 0,1 IU/3x10^4 lymph./ml | 2 ± 0,3 IU/3x10^4 lymph./ml |  |  |  | 
CCOC(=O)Nc1ccc(S(=O)(=O)Nn2cnnc2)cc1 [XXVI, Carboethoxysulfanylic acid (1,2,4-triazole-4-yl)amide] |  |  | 1,6 ± 0,1 IU/3x10^4 lymph./ml | 2 ± 0,2 IU/3x10^4 lymph./ml | 2,5 ± 0,5 IU/3x10^4 lymph./ml |  |  |  | 
CCCCCCOC(=O)Nc1ccc(S(=O)(=O)Nc2ccccc2Cl)cc1 [XXVIII, Carbohexoxysulfanylic acid (2-chlorophenyl)amide] |  |  | 1,4 ± 0,1 IU/3x10^4 lymph./ml | 2,3 ± 0,2 IU/3x10^4 lymph./ml | 3 ± 0,1 IU/3x10^4 lymph./ml |  |  |  | 
CCCCOC(=O)Nc1ccc(S(=O)(=O)Nc2cc(C)ccc2C)cc1 [XIV, Carbobutoxysulfanylic acid (2,5-dimethyl)amide] | 7000 | 70 | 1,2 ± 0,1 IU/3x10^4 lymph./ml | 1,8 ± 0,2 IU/3x10^4 lymph./ml | 2 ± 0,2 IU/3x10^4 lymph./ml |  |  |  | 
CCCCOC(=O)Nc1ccc(S(=O)(=O)Nc2ccccc2C)cc1 [VIII, Carbobutoxysulfanylic acid (2-toluyl)amide] | 8000 | 80 |  |  |  |  |  |  | 

From patent EP1136472A1, “ARYL- AND HETEROARYLAMIDES OF CARBOALKOXYSULFANILIC ACIDS” (priority 1998, dated 2000)
